Test results as given in the supplement of paper PMC10307832.

Assays:
Assay in all cases: relative viability (nuclei count vs DMSO), 5 days (fraction); higher = more cells survive
[1] = compound: O=S(=O)(c1ccccc1)N(CC(F)(F)F)c1ccc(C(O)(C(F)(F)F)C(F)(F)F)cc1 + COc1cc2c(Oc3ccc(NC(=O)C4(C(=O)Nc5ccc(F)cc5)CC4)cc3F)ccnc2cc1OCCCN1CCOCC1 [Foretinib] (partner 0.25 µM)
Procedure, shortened: (§1)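 Lung cancer cell lines were seeded in 1536-well plates and dosed by pin tool the next day, with either a single drug or a fixed anchor-drug dose combined with five library-drug doses (not always all listed) spaced in √10 steps. Five days later, one step fixed the cells and stained their nuclei (final 0.05% Triton X-100, 1% formaldehyde, 1 ug/ml Hoechst), and nuclei were counted on 4× images. Relative viability is the nuclei count in treated wells divided by the count in vehicle wells, and each value is the median of duplicate plates.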

[2] = compound: C1=CC2=C(C=CC(=C2)C=C3C(=O)NC(=NCC4=CC=CS4)S3)N=C1 [RO-3306] + Nc1nc2[nH]cc(CCc3ccc(C(=O)N[C@@H](CCC(=O)O)C(=O)O)cc3)c2c(=O)[nH]1 [Pemetrexed] (partner 0.2 µM)
Procedure, shortened: as §1

[3] = compound: O=S(=O)(c1ccccc1)N(CC(F)(F)F)c1ccc(C(O)(C(F)(F)F)C(F)(F)F)cc1 + C[C@]1(O)C[C@@H](c2nc(-c3ccc4ccc(-c5ccccc5)nc4c3)c3c(N)nccn32)C1 [Linsitinib] (partner 1 µM)
Procedure, shortened: as §1

[4] = compound: C1=CC2=C(C=CC(=C2)C=C3C(=O)NC(=NCC4=CC=CS4)S3)N=C1 [RO-3306] + NC(=O)Nc1cc(-c2cccc(F)c2)sc1C(=O)N[C@H]1CCCNC1 [AZD7762] (partner 0.2 µM)
Procedure, shortened: as §1

Row | Cell Line | relative viability ([1]; first compound 0.8 µM) | relative viability ([1]; first compound 2.53 µM) | relative viability ([1]; first compound 8 µM) | relative viability ([2]; first compound 0.01 µM) | relative viability ([2]; first compound 0.03162 µM) | relative viability ([2]; first compound 0.1 µM) | relative viability ([2]; first compound 0.3162 µM) | relative viability ([2]; first compound 1 µM) | relative viability ([3]; first compound 0.8 µM) | relative viability ([3]; first compound 2.53 µM) | relative viability ([3]; first compound 8 µM) | relative viability ([4]; first compound 0.01 µM) | relative viability ([4]; first compound 0.03162 µM) | relative viability ([4]; first compound 0.1 µM) | relative viability ([4]; first compound 0.3162 µM) | relative viability ([4]; first compound 1 µM)
1 | NCI-H1975 | 1.11 | 1.01 | 1.13 | 0.28 | 0.269 | 0.303 | 0.321 | 0.302 | 1.09 | 1.16 | 0.88 | 0.762 | 0.671 | 0.712 | 0.641 | 0.653
2 | HCC-78 | 0.533 | 0.459 | 0.466 | 0.948 | 0.83 | 0.91 | 0.9 | 0.923 | 0.45 | 0.426 | 0.444 | 0.536 | 0.498 | 0.595 | 0.682 | 0.513
3 | LXF-289 | 0.993 | 0.88 | 0.812 | 0.805 | 0.8 | 1.04 | 0.9 | 0.868 | 0.929 | 0.795 | 0.821 | 1.08 | 0.993 | 1.17 | 0.973 | 1.22
4 | RERF-LC-KJ | 0.816 | 0.746 | 0.751 | 0.515 | 0.48 | 0.493 | 0.459 | 0.449 | 0.901 | 0.779 | 0.801 | 1.02 | 0.671 | 1.06 | 1.11 | 1.24
5 | NCI-H1793 | 0.484 | 0.321 | 0.566 | 0.971 | – | 0.771 | 0.901 | 0.667 | 0.836 | 0.641 | 0.66 | 0.643 | – | 0.484 | 0.277 | 0.532
6 | NCI-H1944 | 0.938 | 0.826 | 0.832 | 0.794 | 0.63 | 0.663 | 0.611 | 0.671 | 1.25 | 1.08 | 1.13 | 0.606 | 0.571 | 0.508 | 0.45 | 0.46
7 | BEN | 0.568 | 0.527 | 0.578 | 0.634 | 0.735 | 0.728 | 0.769 | 0.803 | 1.09 | 0.858 | 0.82 | 0.558 | 0.676 | 0.649 | 0.742 | 0.768
8 | H3255 | 0.866 | 0.673 | 0.786 | 0.506 | 0.501 | 0.547 | 0.57 | 0.57 | 0.962 | 0.867 | 0.832 | 0.897 | 0.774 | 0.856 | 0.888 | 0.848
9 | NCI-H1355 | 1.06 | 0.978 | 1.01 | 1.15 | 0.976 | 0.961 | 0.97 | 1.05 | 0.762 | 0.65 | 0.598 | 0.792 | 0.762 | 0.677 | 0.694 | 0.863
10 | HCC-366 | 0.96 | 0.937 | 1.04 | 0.215 | 0.194 | 0.198 | 0.137 | 0.213 | 0.922 | 0.601 | 0.649 | 0.242 | 0.215 | 0.254 | 0.347 | 0.417
11 | NCI-H1437 | 1.35 | 1.09 | 0.979 | 0.343 | 0.311 | 0.374 | 0.344 | 0.37 | 1.07 | 0.859 | 0.893 | 1.2 | 1.08 | 1.11 | 1.15 | 0.882
12 | LOU-NH91 | 0.999 | 0.884 | 0.937 | 0.354 | 0.346 | 0.346 | 0.399 | 0.373 | 0.996 | 0.92 | 0.915 | 0.76 | 0.721 | 0.746 | 0.721 | 0.667
13 | LC-2-ad | 1.06 | 0.912 | 0.867 | 0.291 | 0.26 | 0.278 | 0.278 | 0.27 | 0.701 | 0.831 | 0.816 | 0.86 | 0.842 | 0.826 | 0.823 | 0.647
14 | PC-3 [JPC-3] | 1.1 | 0.983 | 0.951 | 0.783 | 0.753 | 1.01 | 1.07 | 0.37 | 0.984 | 0.887 | 0.899 | 0.688 | 0.673 | 0.769 | 0.687 | 0.681
15 | NCI-H1734 | 1.07 | 0.868 | 0.822 | 0.394 | 0.41 | 0.372 | 0.414 | 0.432 | 1.04 | 0.883 | 0.932 | 0.596 | 0.491 | 0.536 | 0.585 | 0.483
16 | HOP-62 | 1.08 | 1.09 | 0.881 | 0.371 | 0.438 | 0.318 | 0.307 | 0.416 | 1.14 | 0.607 | 0.836 | 0.695 | 0.469 | 0.466 | 0.567 | 0.451
17 | NCI-H650 | 1.18 | 1.05 | 1.07 | 0.958 | 0.883 | 0.868 | 0.986 | 0.983 | 0.739 | 0.761 | 0.938 | 0.874 | 0.911 | 0.943 | 1.05 | 0.952
18 | NCI-H1993 | 0.681 | 0.726 | 0.679 | 0.627 | 0.5 | 0.624 | 0.573 | 0.539 | 0.7 | 0.721 | 0.806 | 0.697 | 0.756 | 0.772 | 0.77 | 0.684
19 | NCI-H647 | 1.48 | 1.19 | 1.03 | 0.177 | 0.157 | 0.153 | 0.174 | 0.167 | 1.31 | 1.07 | 1.16 | 0.519 | 0.339 | 0.325 | 0.515 | 0.31
20 | EPLC-272H | 0.544 | 0.599 | 0.702 | 0.36 | 0.436 | 0.406 | 0.3 | 0.247 | 1.12 | 1.32 | 1.11 | 0.152 | – | 0.138 | 0.188 | 0.199
21 | NCI-H1395 | 0.924 | 0.862 | 0.994 | 0.678 | 0.751 | 0.728 | 0.726 | 0.549 | 1.23 | 1.05 | 1.21 | 0.44 | 0.42 | 0.374 | 0.374 | 0.427
22 | NCI-H3122 | 0.891 | 0.792 | 1.05 | 0.203 | 0.193 | 0.456 | 0.195 | 0.197 | 0.988 | 0.894 | 1.11 | 1.16 | 1.06 | 0.973 | 1.06 | 1.1
23 | NCI-H322M | 1.08 | 0.915 | 0.953 | 0.624 | 0.613 | 0.574 | 0.695 | 0.592 | 1.09 | 0.915 | 0.999 | 0.538 | 0.697 | 0.625 | 0.597 | 0.582
24 | LU99A | 0.785 | 0.773 | 0.725 | 0.285 | 0.267 | 0.174 | 0.176 | 0.188 | 0.47 | 0.524 | 0.558 | 0.394 | 0.325 | 0.483 | 0.319 | 0.338
25 | 201T | 1.1 | 0.968 | 0.92 | 0.277 | 0.315 | 0.358 | 0.32 | 0.41 | 0.996 | 0.941 | 1.04 | 0.617 | 0.651 | 0.59 | 0.511 | 0.595
26 | LCLC-97TM1 | 0.914 | 0.928 | 0.805 | 0.175 | 0.169 | 0.144 | 0.178 | 0.185 | 0.197 | 0.179 | 0.202 | 0.258 | – | 0.197 | 0.31 | 0.26
27 | PC-14 | 1.11 | 1.09 | 0.988 | 0.135 | 0.162 | 0.137 | 0.133 | 0.176 | 1.23 | 1.07 | 0.888 | 0.28 | 0.32 | 0.285 | 0.426 | 0.251
28 | NCI-H1651 | 0.974 | 0.795 | 0.68 | 0.644 | 0.569 | 0.554 | 0.556 | 0.54 | 1.04 | 0.901 | 1.02 | 0.437 | 0.406 | 0.454 | 0.424 | 0.469
29 | HCC-15 | 1.03 | 0.951 | 0.847 | 0.203 | 0.21 | 0.26 | 0.225 | 0.199 | 0.798 | 0.758 | 0.812 | 1.25 | 1.08 | 1.12 | 1.21 | 1.34
30 | NCI-H1755 | 0.891 | 0.79 | 0.951 | 0.656 | 0.505 | 0.446 | 0.426 | 0.404 | 1.01 | 0.98 | 0.995 | 0.609 | 0.473 | 0.458 | 0.439 | 0.496
